Results taken from patent publication US12077503B2, “Substituted cyclic amides and their use as herbicides” (FMC CORPORATION, priority 2015, dated 2024).
Where two headings read alike, the source gives them in different places.

Columns and labels:
Assay type in all cases: in vivo
[1] = system: sedge, umbrella (small-flower umbrella sedge, Cyperus difformis); experiment: Test B flooded paddy test; conditions: Cyperus difformis, Flood, 250 g ai/ha, read-out: Sedge, Umbrella plant response rating
Method in brief: (§1)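 Flooding to 3 cm over soil accompanied treatment, which consisted of adding compound to the standing water around 2-leaf plants; depth was then maintained. Visual assessment versus controls followed at 13 to 15 d (scale 0–100, 0 meaning no effect).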

[2] = system: ducksalad (Heteranthera limosa); experiment: Test B flooded paddy test; conditions: Heteranthera limosa, Flood, 250 g ai/ha, read-out: Ducksalad plant response rating
Method in brief: as §1

[3] = system: barnyardgrass (Echinochloa crus-galli); experiment: Test B flooded paddy test; conditions: Echinochloa crus-galli, Flood, 250 g ai/ha, read-out: Barnyardgrass plant response rating
Method in brief: as §1

rice (Oryra sativa) = experiment: Test B flooded paddy test; conditions: Oryza sativa, Flood, 250 g ai/ha, read-out: Rice plant response rating
Method in brief: as §1

Kochia (Kochia scoparia) = experiment: Test A preemergence; conditions: Bassia scoparia, pre-emergence, 240 h, preemergence, read-out: Kochia plant response rating; for pest or weed control at 125 g/ha: 125 g ai/ha; for pest or weed control at 500 g/ha: 500 g ai/ha
Method in brief: (§2)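 Compounds were formulated in a non-phytotoxic solvent mixture with surfactant and applied as a preemergence directed soil spray after seeding, or sprayed postemergence over plants 2 to 10 cm tall at the one- to two-leaf stage. Evaluation after about 10 d compared treated with untreated controls, using a scale from 0 (no effect) to 100 (complete control).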

[4] = system: ryegrass, Italian (Italian ryegrass, Lolium multiflorum); experiment: Test A preemergence; conditions: Lolium multiflorum, pre-emergence, 240 h, preemergence, read-out: Ryegrass, Italian plant response rating; for pest or weed control at 500 g/ha: 500 g ai/ha
Method in brief: as §2

[5] = system: pigweed (Amaranthus retroflexus); experiment: Test A preemergence; conditions: Amaranthus retroflexus, pre-emergence, 240 h, preemergence, read-out: Pigweed plant response rating; for pest or weed control at 125 g/ha: 125 g ai/ha; for pest or weed control at 500 g/ha: 500 g ai/ha
[6] = system: ragweed (common ragweed, Ambrosia elatior); experiment: Test A preemergence; conditions: Ambrosia artemisiifolia, pre-emergence, 240 h, preemergence, read-out: Ragweed plant response rating; for pest or weed control at 500 g/ha: 500 g ai/ha
Method in brief: as §2

[7] = system: giant foxtail (Setaria faberii); experiment: Test A preemergence; conditions: Setaria faberi, pre-emergence, 240 h, preemergence, read-out: Foxtail, Giant plant response rating; for pest or weed control at 125 g/ha: 125 g ai/ha; for pest or weed control at 500 g/ha: 500 g ai/ha
Method in brief: as §2

[8] = system: barnyardgrass (Echinochloa crus-galli); experiment: Test A preemergence; conditions: Echinochloa crus-galli, pre-emergence, 240 h, preemergence, read-out: Barnyardgrass plant response rating; for pest or weed control at 125 g/ha: 125 g ai/ha; for pest or weed control at 500 g/ha: 500 g ai/ha
Method in brief: as §2

[9] = system: blackgrass (Alopecurus myosuroides); experiment: Test A postemergence; conditions: Alopecurus myosuroides, post-emergence, 240 h, Postemergence; for pest or weed control at 125 g/ha: 125 g ai/ha
Method in brief: as §2

[10] = system: ryegrass, Italian (Italian ryegrass, Lolium multiflorum); experiment: Test A postemergence; conditions: Lolium multiflorum, post-emergence, 240 h, Postemergence; for pest or weed control at 125 g/ha: 125 g ai/ha
Method in brief: as §2

[11] = system: pigweed (Amaranthus retroflexus); experiment: Test A postemergence; conditions: Amaranthus retroflexus, post-emergence, 240 h, Postemergence; for pest or weed control at 125 g/ha: 125 g ai/ha
Method in brief: as §2

[12] = system: wheat (Triticum aestivum); experiment: Test A postemergence; conditions: Triticum aestivum, post-emergence, 240 h, Postemergence; for plant injury at 125 g/ha: 125 g ai/ha
Method in brief: as §2

[13] = system: giant foxtail (Setaria faberii); experiment: Test A postemergence; conditions: Setaria faberi, post-emergence, 240 h, Postemergence; for pest or weed control at 125 g/ha: 125 g ai/ha
Method in brief: as §2

[14] = scale of 0 to 100 where 0 is no effect and 100 is complete control
[15] = 0 to 100 scale where 0 is no effect and 100 is complete control
[16] = visual injury rating about 10 d after treatment, 0 to 100 scale (0 no effect, 100 complete control)
[17] = visual injury rating, 0 to 100 scale where 0 is no effect and 100 is complete control, approximately 10 d
[18] = 125 g ai/ha, visual injury rating, 0 to 100 scale where 0 is no effect and 100 is complete control, approximately 10 d

CN1C[C@H](c2ccc(C(F)(F)F)cc2)[C@@H](C(=O)Nc2cccc(F)c2Cl)C1=O [Compound 938]
pest or weed control at 250 g/ha [1, 14]: 0%
pest or weed control at 250 g/ha [2, 14]: 60%
pest or weed control at 250 g/ha [3, 14]: 40%
pest or weed control at 250 g/ha (rice (Oryra sativa); [14]): 0%
pest or weed control at 125 g/ha (Kochia (Kochia scoparia); [15]): 70%
pest or weed control at 500 g/ha (Kochia (Kochia scoparia); [16]): 80%
pest or weed control at 500 g/ha [4, 16]: 30%
pest or weed control at 125 g/ha [5, 15]: 80%
pest or weed control at 500 g/ha [5, 16]: 90%
pest or weed control at 500 g/ha [6, 16]: 20%
pest or weed control at 125 g/ha [7, 15]: 90%
pest or weed control at 500 g/ha [7, 16]: 90%
pest or weed control at 125 g/ha [8, 15]: 90%
pest or weed control at 500 g/ha [8, 16]: 90%
pest or weed control at 125 g/ha ([9]; visual injury after approximately 10 d, 0 to 100 scale where 0 is no effect and 100 is complete control, read-out: Plant response rating, Blackgrass): 40%
pest or weed control at 125 g/ha ([10]; visual injury after approximately 10 d, 0 to 100 scale where 0 is no effect and 100 is complete control, read-out: Plant response rating, Ryegrass, Italian): 20%
pest or weed control at 125 g/ha ([11]; visual injury after approximately 10 d, 0 to 100 scale where 0 is no effect and 100 is complete control, read-out: Plant response rating, Pigweed): 50%
plant injury at 125 g/ha ([12]; visual injury after approximately 10 d, 0 to 100 scale where 0 is no effect and 100 is complete control, read-out: Plant response rating, Wheat): 40%
pest or weed control at 125 g/ha ([13]; visual injury after approximately 10 d, 0 to 100 scale where 0 is no effect and 100 is complete control, read-out: Plant response rating, Foxtail, Giant): 80%

COc1cc([C@H]2CN(C)C(=O)[C@@H]2C(=O)Nc2ccccc2S(C)(=O)=O)ccc1F [Compound 1302]
pest or weed control at 250 g/ha [1, 15]: 0%
pest or weed control at 250 g/ha [2, 15]: 80%
pest or weed control at 250 g/ha [3, 15]: 20%
pest or weed control at 250 g/ha (rice (Oryra sativa); [15]): 15%
pest or weed control at 125 g/ha (Kochia (Kochia scoparia); [17]): 0%
pest or weed control at 500 g/ha (Kochia (Kochia scoparia); [15]): 60%
pest or weed control at 125 g/ha [4, 18]: 0%
pest or weed control at 500 g/ha [4, 15]: 0%
pest or weed control at 125 g/ha [5, 17]: 0%
pest or weed control at 500 g/ha [5, 15]: 30%
pest or weed control at 125 g/ha [6, 18]: 0%
pest or weed control at 500 g/ha [6, 15]: 50%
pest or weed control at 125 g/ha [7, 17]: 90%
pest or weed control at 500 g/ha [7, 15]: 90%
pest or weed control at 125 g/ha [8, 17]: 60%
pest or weed control at 500 g/ha [8, 15]: 90%
pest or weed control at 125 g/ha ([9]; visual rating about 10 d after treatment, read-out: Blackgrass plant response rating (0 to 100 scale)): 0%
pest or weed control at 500 g/ha ([9]; 500 g ai/ha, visual injury, 0 to 100 scale (0 no effect, 100 complete control), approx. 10 d, read-out: Plant response rating, Blackgrass): 20%
pest or weed control at 125 g/ha ([10]; visual rating about 10 d after treatment, read-out: Ryegrass, Italian plant response rating (0 to 100 scale)): 0%
pest or weed control at 500 g/ha ([10]; 500 g ai/ha, visual injury, 0 to 100 scale (0 no effect, 100 complete control), approx. 10 d, read-out: Plant response rating, Ryegrass, Italian): 20%
pest or weed control at 125 g/ha ([11]; visual rating about 10 d after treatment, read-out: Pigweed plant response rating (0 to 100 scale)): 0%
pest or weed control at 500 g/ha ([11]; 500 g ai/ha, visual injury, 0 to 100 scale (0 no effect, 100 complete control), approx. 10 d, read-out: Plant response rating, Pigweed): 0%
plant injury at 125 g/ha ([12]; visual rating about 10 d after treatment, read-out: Wheat plant response rating (0 to 100 scale)): 0%
plant injury at 500 g/ha ([12]; 500 g ai/ha, visual injury, 0 to 100 scale (0 no effect, 100 complete control), approx. 10 d, read-out: Plant response rating, Wheat): 0%
pest or weed control at 125 g/ha ([13]; visual rating about 10 d after treatment, read-out: Foxtail, Giant plant response rating (0 to 100 scale)): 30%
pest or weed control at 500 g/ha ([13]; 500 g ai/ha, visual injury, 0 to 100 scale (0 no effect, 100 complete control), approx. 10 d, read-out: Plant response rating, Foxtail, Giant): 80%
